# Measured values: patent US10668016B2, “Complexes of abiraterone acetate, process for the preparation thereof and pharmaceutical compositions containing them” (NanGenex Nanotechnology Incorporated, priority 2015, dated 2020)
# Like-named read-outs stand apart in the source and are kept apart here.
# Assays:
# [1] = cited from earlier work; for compound present in feces, % of the administered dose: oral 14C-abiraterone acetate
# [2] = Apparent solubility in distilled water; type: physicochemical; conditions: distillated water, room temperature, 100 nm filter
# Source text: The samples were dispersed in distillated water and the resulting dispersions were filtered by 100 nm disposable syringe filter. […] The filtrate may contain Abiraterone acetate complex particles which could not be filtrated out using 100 nm pore size filter.
# [3] = PAMPA permeability; conditions: comparative in-vitro PAMPA assay
# Method: PAMPA permeability measurements were performed as described by M Kansi et al. (Journal of medicinal chemistry, 41, (1998) pp 1007) with modifications based on S. Bendels et al (Pharmaceutical research, 23 (2006) pp 2525). Permeability was measured in a 96-well plate assay across an artificial membrane composed of dodecane with 20% soy lecithin supported by a PVDF membrane (Millipore, USA). The receiver compartment was phosphate buffered saline (pH 7.0) supplemented with 1% sodium dodecyl sulfate. The assay was performed at room temperature; incubation time was 1-24 hours. The concentration in the receiver compartment was determined by UV-VIS spectrophotometry (Thermo Scientific Genesys S10).
# [4] = biological target: P-glycoprotein (P-gp) (Homo sapiens, UniProt P08183); conditions: cited from earlier work
# [5] = cited from earlier work
# [6] = cited from earlier work; remark: listed apart in the source
# [7] = test system: serum testosterone and other androgens; conditions: patients, placebo-controlled phase 3 clinical trial; cited from earlier work
# [8] = test system: human plasma proteins, albumin and alpha-1 acid glycoprotein; conditions: cited from earlier work
# [9] = 1,000 mg daily, patients with metastatic CRPC
# [10] = high-fat (57% fat, 825 calories) meal
# [11] = low-fat meal (7% fat, 300 calories)
# P-glycoprotein (P-gp), sequence (P08183 whole entry): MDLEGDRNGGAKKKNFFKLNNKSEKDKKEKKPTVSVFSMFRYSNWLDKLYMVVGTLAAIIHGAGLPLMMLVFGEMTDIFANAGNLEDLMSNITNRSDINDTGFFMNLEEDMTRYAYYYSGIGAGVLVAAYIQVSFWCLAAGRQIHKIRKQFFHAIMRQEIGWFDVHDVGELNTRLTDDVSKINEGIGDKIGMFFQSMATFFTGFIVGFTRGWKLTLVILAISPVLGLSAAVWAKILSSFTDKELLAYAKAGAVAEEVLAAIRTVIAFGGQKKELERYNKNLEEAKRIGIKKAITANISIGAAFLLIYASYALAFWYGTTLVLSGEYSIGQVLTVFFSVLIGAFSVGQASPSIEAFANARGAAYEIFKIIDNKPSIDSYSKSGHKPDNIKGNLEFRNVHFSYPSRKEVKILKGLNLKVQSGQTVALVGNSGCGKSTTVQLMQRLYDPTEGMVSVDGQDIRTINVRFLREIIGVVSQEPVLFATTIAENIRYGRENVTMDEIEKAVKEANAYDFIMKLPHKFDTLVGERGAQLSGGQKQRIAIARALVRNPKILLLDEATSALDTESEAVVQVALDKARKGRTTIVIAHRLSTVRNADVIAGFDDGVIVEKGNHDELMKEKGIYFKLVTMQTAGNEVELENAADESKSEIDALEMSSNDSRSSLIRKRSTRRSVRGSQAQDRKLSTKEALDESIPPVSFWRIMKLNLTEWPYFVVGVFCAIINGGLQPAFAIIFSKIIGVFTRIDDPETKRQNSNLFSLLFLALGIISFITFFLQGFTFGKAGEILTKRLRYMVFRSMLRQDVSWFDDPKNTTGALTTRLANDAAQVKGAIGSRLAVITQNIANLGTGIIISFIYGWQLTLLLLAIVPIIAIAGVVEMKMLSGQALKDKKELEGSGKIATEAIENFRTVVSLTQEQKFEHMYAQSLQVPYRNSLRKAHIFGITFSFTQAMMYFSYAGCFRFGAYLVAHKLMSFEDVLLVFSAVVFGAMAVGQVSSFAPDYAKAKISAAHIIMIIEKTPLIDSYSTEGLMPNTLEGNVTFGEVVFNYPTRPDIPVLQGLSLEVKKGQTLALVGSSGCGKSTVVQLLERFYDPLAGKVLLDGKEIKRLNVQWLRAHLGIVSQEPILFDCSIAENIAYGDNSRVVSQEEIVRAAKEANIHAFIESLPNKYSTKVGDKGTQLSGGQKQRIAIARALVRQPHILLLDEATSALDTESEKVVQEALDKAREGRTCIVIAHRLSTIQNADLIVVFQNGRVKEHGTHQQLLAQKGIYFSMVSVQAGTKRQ
compound,measurement,setting,value
C[C@]12CC[C@H](OS(=O)(=O)O)CC1=CC[C@@H]1[C@@H]2CC[C@]2(C)C(c3ccc[n+]([O-])c3)=CC[C@@H]12 [N-oxide Abiraterone sulphate],share of exposure of circulating metabolite in human plasma,[1]; oral 14C-abiraterone acetate capsules,about 43%
"(3β)-17-(3-pyridinyl) androsta-5,16-dien-3-yl acetate [Abiraterone acetate]",Apparent solubility,[2],< 4 µg/mL
same,PAMPA permeability,[3],below 0.1*10^−6 cm/s
"CC(=O)O[C@H]1CC[C@@]2(C)C(=CC[C@@H]3[C@@H]2CC[C@]2(C)C(c4cccnc4)=CC[C@@H]32)C1 [Abiraterone acetate, (3β)-17-(3-pyridinyl) androsta-5,16-dien-3-yl acetate]",P-gp inhibition,[4]; not told,inhibitor
same,P-gp substrate,[4]; not told,not substrates
same,"compound present in feces, % of the administered dose",[1],approximately 55%
same,Solubility in water,[5],practically insoluble
same,steady-state AUC (mean±SD),[6]; [9],993 ± 639 ng·h/mL
same,steady-state Cmax (mean±SD),[6]; [9],226 ± 178 ng/mL
same,Abiraterone acetate plasma concentrations,[6]; below detectable levels in >99% of the analyzed samples,< 0.2 ng/mL
same,increase in the mean AUC when dose doubled,"[6]; dose doubled from 1,000 to 2,000 mg",8%
same,Abiraterone AUC0-∞ higher with food,[6]; [10],~10 fold
same,Abiraterone Cmax higher with food,[6]; [10],approximately 17 fold
same,Abiraterone AUC0-∞ higher with food,[6]; [11],~5 fold
same,Abiraterone Cmax higher with food,[6]; [11],approximately 7 fold
same,median time to reach maximum plasma Abiraterone concentrations,"[6]; oral, patients with metastatic CRPC",2 h
same,Abiraterone AUC0-∞ (exposure) increase (positive food effect),[6]; single dose,≤ 10 fold
same,Abiraterone Cmax increase (positive food effect),[6]; single dose,up to 17 fold
same,"Abiraterone accumulation: steady-state AUC compared to a single 1,000 mg dose",[6]; steady-state,2 fold
same,Effect on serum testosterone and other androgens,[7],decreased
C[C@]12CC[C@H](O)CC1=CC[C@@H]1[C@@H]2CC[C@]2(C)C(c3cccnc3)=CC[C@@H]12 [Abiraterone],P-gp substrate,"[4]; in vitro, clinically relevant concentrations",not substrates
same,bound to human plasma proteins,[8],> 99%
same,"compound present in feces, % of the administered dose",[1],~22%
